The text below walks through data of ChEMBL document CHEMBL2429856, “Benzazepinones and benzoxazepinones as antagonists of inhibitor of apoptosis proteins (IAPs) selective for the second baculovirus IAP repeat (BIR2) domain” (J Med Chem, 2013).

In series [1] the target is T1, E3 ubiquitin-protein ligase XIAP (Homo sapiens, UniProt P98170).
A short description of series [2]: Half life in mouse at 10 mg/kg, po. The settings on record: in vivo. On the set-up: dose 10 mg/kg, route oral. The class given is ADME, organism-based.
Series [3] is described as follows: Volume of distribution at steady state in mouse at 1 mg/kg, iv. The settings on record: in vivo, read-out: Vdss. On the set-up: dose 1 mg/kg, route intravenous. The class given is ADME, organism-based.
Series [4] is described as follows: Cmax in mouse at 10 mg/kg, po. It is filed as ADME, organism-based. Also noted: dose 10 mg/kg, route oral. The settings on record: in vivo.
Series [5] addresses T2, Cytochrome P450 3A4 (Homo sapiens, UniProt P08684). Briefly: Induction of CYP3A4 (unknown origin). It is filed as ADME.
A short description of series [6]: AUC in mouse at 1 mg/kg, iv. The class given is ADME, organism-based. The note with it: plasma. On the set-up: dose 1 mg/kg, route intravenous.
Series [7] concerns the target T3, Baculoviral IAP repeat-containing protein 2 (Homo sapiens, UniProt Q13490). The experiment in a line: Inhibition of His-thrombin-TEV-tagged cIAP1 BIR3 domain (260 to 352) (unknown origin) after 1 hr by TR-FRET assay. Background: TR-FRET usually uses a lanthanide donor and a delayed reading to cut background.
Series [8] in a line: Clearance in mouse at 1 mg/kg, iv. The settings on record: in vivo. Also noted: dose 1 mg/kg, route intravenous. It is filed as ADME, organism-based.
Series [9] has as its target T2, Cytochrome P450 3A4. Briefly: Inhibition of CYP3A4 (unknown origin). It is filed as ADME.
The target of series [10] is T2, Cytochrome P450 3A4. Briefly: Time dependent inhibition of CYP3A4 (unknown origin). It is filed as ADME.
The nature of series [11]: AUC in mouse at 10 mg/kg, po. It is filed as ADME, organism-based. Also noted: dose 10 mg/kg, route oral. The settings on record: plasma.
A short description of series [12]: Half life in mouse at 1 mg/kg, iv. It is filed as ADME, organism-based. The settings on record: in vivo. On the set-up: dose 1 mg/kg, route intravenous.
A short description of series [13]: Oral bioavailability in mouse at 10 mg/kg. The settings on record: in vivo. It is filed as ADME, organism-based.
The target in series [14] is T3, Baculoviral IAP repeat-containing protein 2. The experiment in a line: Inhibition of His-thrombin-TEV-tagged cIAP1 BIR2 domain (174 to 256) (unknown origin) after 1 hr by TR-FRET assay.
The nature of series [15]: Cmax in mouse at 1 mg/kg, iv. It is filed as ADME, organism-based. Also noted: dose 1 mg/kg, route intravenous. The settings on record: in vivo.
Series [16] in a line: In vivo metabolic stability in rat urine assessed as hydrolysis of the alanine amide at 4 mg/kg, iv. It is filed as ADME, organism-based. On the set-up: dose 4 mg/kg, route intravenous.
A short description of series [17]: Metabolic stability in rat blood assessed as compound remaining at 1 uM after 4 hrs by LC-MS/MS analysis. The class given is ADME, tissue-based. The note with it: read-out: Stability.
A further series has as its system Plasma. The experiment in a line: In vivo metabolic stability in rat plasma assessed as hydrolysis of the alanine amide at 4 mg/kg, iv. The class given is ADME, organism-based. Also noted: dose 4 mg/kg, route intravenous.
Series [18] can be described thus: Clearance in rat at 2 mg/kg, iv. The class given is ADME, organism-based. On the set-up: dose 2 mg/kg, route intravenous. The note with it: in vivo.
Series [19] concerns Hepatocyte. The experiment in a line: Drug metabolism in rat hepatocytes assessed as demethylation of N-methyl-L-alanine. The class given is ADME, cell-based.
Series [20] relates to Hepatocyte. The experiment in a line: Drug metabolism in rat hepatocytes assessed as demethylation of methoxy group of naphthalene. It is filed as ADME, cell-based.
The test system of series [21] is Hepatocyte. The experiment in a line: Drug metabolism in human hepatocytes assessed as demethylation of methoxy group of naphthalene. It is filed as ADME, cell-based.
For series [22], the system named is Hepatocyte. Briefly: Drug metabolism in human hepatocytes assessed as demethylation of N-methyl-L-alanine. The class given is ADME, cell-based.
The target of series [23] is T1, E3 ubiquitin-protein ligase XIAP. The source holds these as a separate data set.

T1 sequence (P98170 whole entry): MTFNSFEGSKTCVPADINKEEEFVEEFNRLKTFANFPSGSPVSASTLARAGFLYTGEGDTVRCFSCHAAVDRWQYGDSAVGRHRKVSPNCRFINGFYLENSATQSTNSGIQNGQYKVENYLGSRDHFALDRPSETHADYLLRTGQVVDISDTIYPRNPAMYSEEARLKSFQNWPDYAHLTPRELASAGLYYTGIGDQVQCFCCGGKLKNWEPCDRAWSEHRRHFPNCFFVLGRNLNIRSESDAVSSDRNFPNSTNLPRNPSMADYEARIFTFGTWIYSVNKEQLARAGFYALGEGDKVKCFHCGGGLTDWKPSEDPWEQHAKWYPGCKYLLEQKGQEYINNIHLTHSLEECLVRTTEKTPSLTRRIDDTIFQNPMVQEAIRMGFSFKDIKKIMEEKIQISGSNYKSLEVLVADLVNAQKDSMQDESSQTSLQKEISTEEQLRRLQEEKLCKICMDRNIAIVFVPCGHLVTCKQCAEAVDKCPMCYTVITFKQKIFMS
T2 sequence (P08684 whole entry): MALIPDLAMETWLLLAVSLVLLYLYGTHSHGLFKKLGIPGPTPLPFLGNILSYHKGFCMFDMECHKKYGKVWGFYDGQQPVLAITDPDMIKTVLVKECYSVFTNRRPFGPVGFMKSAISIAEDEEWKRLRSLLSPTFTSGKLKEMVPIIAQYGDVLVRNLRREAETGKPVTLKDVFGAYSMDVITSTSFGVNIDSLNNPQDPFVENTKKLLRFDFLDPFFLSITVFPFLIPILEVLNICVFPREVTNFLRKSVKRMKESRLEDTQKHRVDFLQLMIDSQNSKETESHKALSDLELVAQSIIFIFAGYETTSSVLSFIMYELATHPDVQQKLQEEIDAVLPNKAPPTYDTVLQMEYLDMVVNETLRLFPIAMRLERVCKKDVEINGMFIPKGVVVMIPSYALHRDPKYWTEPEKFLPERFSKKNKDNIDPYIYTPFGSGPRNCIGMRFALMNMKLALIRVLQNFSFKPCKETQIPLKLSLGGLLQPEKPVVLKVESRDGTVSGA
T3 sequence (Q13490 whole entry, the tested form may be a part): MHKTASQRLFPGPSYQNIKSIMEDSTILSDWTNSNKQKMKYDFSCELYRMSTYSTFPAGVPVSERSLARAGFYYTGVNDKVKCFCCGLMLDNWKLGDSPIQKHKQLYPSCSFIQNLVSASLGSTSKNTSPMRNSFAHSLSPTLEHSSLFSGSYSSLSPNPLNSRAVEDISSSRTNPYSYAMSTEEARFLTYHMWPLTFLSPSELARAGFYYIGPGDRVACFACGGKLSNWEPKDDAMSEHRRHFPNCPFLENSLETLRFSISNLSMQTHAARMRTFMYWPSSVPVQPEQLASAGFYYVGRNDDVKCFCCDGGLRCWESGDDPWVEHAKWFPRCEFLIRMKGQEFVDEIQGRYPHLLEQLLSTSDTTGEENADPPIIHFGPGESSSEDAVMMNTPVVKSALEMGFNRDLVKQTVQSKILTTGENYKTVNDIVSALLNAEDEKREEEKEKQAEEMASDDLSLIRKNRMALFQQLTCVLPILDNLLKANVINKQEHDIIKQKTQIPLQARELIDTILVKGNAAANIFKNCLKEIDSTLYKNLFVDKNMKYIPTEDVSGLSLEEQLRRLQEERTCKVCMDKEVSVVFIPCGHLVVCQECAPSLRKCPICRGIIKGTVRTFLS

Usually IC50 stands for the concentration that gives 50% inhibition. Read a low IC50 as greater potency in that assay. As for `CN[C@@H](C)C(=O)N[C@@H]1C(=O)N(Cc2nn(-c3ccccc3C#N)c3ccccc23)c2ccccc2OC12CCOCC2`, the concentration for half-maximal inhibition (IC50) in [1] was more than 54.8 µM.
In general, half-life refers to how long it takes for the measured level to halve. A higher half-life goes with slow loss. Usually Cmax stands for the maximum level reached in the sampled fluid or tissue. For orientation: AUC means concentration integrated over time. A lower AUC goes with low exposure. In general, clearance refers to a measure of how efficiently the substance is removed, as volume per time. Lower therefore signals a low capacity for elimination. Usually bioavailability stands for the share of a dose that reaches the circulation, judged against a reference dose that is usually intravenous. As for `CN[C@@H](C)C(=O)N[C@@H]1C(=O)N(Cc2c(C#N)n(-c3ccccc3C#N)c3ccccc23)c2ccccc2OC12CCOCC2.Cl`, the half-life in [2] was 5 h; in series [12], 6.9 h. In series [3], the Vd stood at 8.6 L/kg. Also, the results for the Cmax in series [4] and in series [15] were 0.647 µg/mL and 0.495 µg/mL, respectively. Besides, the outcome at Cytochrome P450 3A4 [5] was Active. Moreover, the area under the curve (AUC) in [6] is 0.543 µg·h/mL; in [11] it was 2.86 µg·h/mL. For the same compound, the IC50 is more than 55 µM in [7] and 0.271 µM in [14]. The clearance in [8] stood at 1.98 L/h/kg. Further, the “inhibition (INH)” value at Cytochrome P450 3A4 [9] and against Cytochrome P450 3A4 [10] was “Active” each time. The bioavailability in series [13] is 53%.
On to `CN[C@@H](C)C(=O)N[C@H]1CCc2ccccc2N(Cc2cccc3ccccc23)C1=O`, for which the 50% inhibitory concentration (IC50) in series [1] is more than 54 µM.
As to `CN[C@@H](C)C(=O)N[C@H]1CCc2ccccc2N(Cc2ccc(C)c3ccccc23)C1=O`, the IC50 in series [1] is more than 54 µM.
Turning to `CN[C@@H](C)C(=O)N[C@H]1CCc2ccccc2N(Cc2c(C)ccc3ccccc23)C1=O`, the IC50 in series [1] was more than 54 µM.
As to `CN[C@@H](C)C(=O)N[C@H]1CCc2ccccc2N(Cc2c(OC)ccc3ccccc23)C1=O`, the IC50 in series [1] is more than 54 µM.
Take `CN[C@@H](C)C(=O)N[C@H]1CCc2ccccc2N(Cc2c(OC)ccc3cc(Br)ccc23)C1=O.Cl`: the concentration for half-maximal inhibition (IC50) in [1] was more than 54 µM. In addition, the Stability result (in series [16]; with Plasma) was “Unstable” each time. Also, in series [17], the remaining at 4 h, 1 µM worked out at 40%. Besides, the clearance in series [18] came to 6.96 L/h/kg.
In series [1], `CN[C@H](C)C(=O)N[C@H]1CCc2ccccc2N(Cc2c(OC)ccc3cc(Br)ccc23)C1=O` displayed a concentration for half-maximal inhibition (IC50) of more than 54 µM.
Same read-out and setting: the result for `COc1ccc2cc(Br)ccc2c1CN1C(=O)[C@@H](NC(=O)[C@@H](N)[C@H](C)O)CCc2ccccc21` reads more than 54 µM; that for `CCN[C@@H](C)C(=O)N[C@H]1CCc2ccccc2N(Cc2c(OC)ccc3cc(Br)ccc23)C1=O`, more than 54 µM.
As for `CN[C@@H](C)C(=O)N[C@H]1COc2ccccc2N(Cc2c(OC)ccc3cc(Br)ccc23)C1=O`, the remaining at 4 h, 1 µM in series [17] is 7%.
For `CN[C@@H](C)C(=O)N[C@@H]1C(=O)N(Cc2c(OC)ccc3cc(Br)ccc23)c2ccccc2OC12CCOCC2.Cl`, the remaining at 4 h, 1 µM in [17] came to 88%. Also, the Drug metabolism entry in the series on Hepatocyte [19], with Hepatocyte [20], with Hepatocyte [21] and in the series on Hepatocyte [22] was “Active” each time.
For the compound `C[C@H](N)C(=O)N[C@@H]1C(=O)N(C)CCc2ccccc21`, the IC50 was more than 54.2 µM in series [1] and 14.4 µM in series [23].
Turning to `CN[C@@H](C)C(=O)N[C@H]1CCc2ccccc2N(Cc2ccccc2)C1=O`, the IC50 in [1] is more than 54 µM.
On the same count and under the same terms, the same measure for `CN[C@@H](C)C(=O)N[C@H]1CCc2ccccc2N(CCc2ccccc2)C1=O`: more than 54 µM; for `CN[C@@H](C)C(=O)N[C@H]1CCc2ccccc2N(Cc2ccc3ccccc3c2)C1=O`: more than 54 µM.
